In one series the test system is MDA-MB-231 cells. As to the kind of experiment: Cytotoxicity test, Cell Counting Kit-8, 72 hours. The settings on record: Homo sapiens, MDA-MB-231, breast cancer. The class given is cell-based. The protocol: The experiment was carried out in the same manner as that in the case of using KR12. The cells used in the experiment were Kelly cells, SK-N-SH cells, IMR-32 cells, SK-N-AS cells, and MDA-MB-231 cells. These cells were cultured in a DMEM, 10% FBS and 1% Pen/St medium, and in an RPMI1640, 10% FBS and 1% Pen/St medium, respectively. The cells of each type were seeded in each well of a 96-well plate at a cell density of 1000 cells/50 μl/well, and were then cultured under conditions of 37° C., 5% CO2, and saturated humidity for 24 hours. Thereafter, a reagent was diluted with a medium (final concentration: 1, 3, 10, 30, and 100 nM), and the diluted reagent was then added to the cultured cells in an amount of 50 μl/well, and the obtained mixture was then blended. The thus obtained mixture was cultured again under conditions of 37° C., 5% CO2, and saturated humidity for 72 hours. […] The absorbance was measured using Microplate Reader MTP-310 Lab (COLONA ELECTORIC), and the IC50 value was then calculated.
The experiment was carried out in the same manner as that in the case of using KR12. […] The absorbance was measured using Microplate Reader MTP-310 Lab (COLONA ELECTORIC), and the IC50 value was then calculated.
For orientation: Tetrazolium dyes change colour on reduction, which living cells bring about.

Another series concerns MCF7 cells. Briefly: Cytotoxicity test, Cell Counting Kit-8, 72 hours. The class given is cell-based. The conditions noted are these: Homo sapiens, MCF7, breast cancer, PIK3CA E545K, FIG. 27A. The protocol:
(§1) The experiment was carried out in the same manner as that in the case of using KR12. The cells used in the experiment were MCF7 cells and MDA-MB-231 cells. These cells were cultured in a DMEM, 10% FBS and 1% Pen/St medium, and in an RPMI1640, 10% FBS and 1% Pen/St medium, respectively. The cells of each type were seeded in each well of a 96-well plate at a cell density of 1000 cells/50 μl/well, and were then cultured under conditions of 37° C., 5% CO2, and saturated humidity for 24 hours. Thereafter, a reagent was diluted with a medium (final concentration: 1, 3, 10, 30, and 100 nM), and the diluted reagent was then added to the cultured cells in an amount of 50 μl/well, and the obtained mixture was then blended. The thus obtained mixture was cultured again under conditions of 37° C., 5% CO2, and saturated humidity for 72 hours. Thereafter, Cell Counting Kit-8 (DOJINDO) was added to the obtained culture in an amount of 10 μl/well, and the thus obtained mixture was blended and was then cultured under conditions of 37° C., 5% CO2, and saturated humidity for 2 hours. The absorbance was measured using Microplate Reader MTP-310 Lab (COLONA ELECTORIC), and the IC50 value was then calculated.

Another series relates to LS180 cells. Briefly: Cytotoxicity test, WST-8 (cell counting kit-8), 48 hours. The class given is cell-based, human. The conditions noted are these: LS180 cells. The protocol:
Using LS180 colon cell line, the cells were seeded in each well of a 96-well microplate, resulting in a cell density of 3000 to 5000 cells/well, and they were then cultured overnight. On the following day, KR12 recognizing a codon 12 mutation, WT recognizing wild-type KRAS, and C12-Dp having the same structure as that of KR12, to which an alkylating agent had not been added, were each added to the cultured cells in concentrations of 1 nM, 10 nM, 30 nM, 100 nM, 300 nM, and 1 μM, and were then treated for 48 hours. Thereafter, a WST-8 reagent was added to each well, using cell counting kit-8 (DOJINDO), and the obtained mixture was then reacted for 2 hours. After that, the number of cells was counted at a wavelength of 450 nm according to a colorimetric analysis method using a microplate reader. The method of counting the number of cells comprises: 1) obtaining the mean value of the medium alone, 2) subtracting the mean value of the medium from each well, 3) obtaining the mean value of DMSO, 4) dividing the medium-subtracted value by the mean value of DMSO and then multiplying by 100, 5) obtaining the mean value of each treatment group and a standard deviation, and then preparing a graph. The calculation formula of IC50 is the following: IC50=10 (LOG (A/B)×(50−C)/(D−C)+LOG (B)), wherein A: a higher concentration of two concentrations sandwiching 50%, B: a lower concentration of two concentrations sandwiching 50%, C: inhibitory percentage at B, and D: inhibitory percentage at A.
Using colon cancer and pancreatic cancer cell lines, the cells were seeded in each well of a 96-well microplate, resulting in a cell density of 3000 to 5000 cells/well, and they were then cultured overnight. On the following day, the cells of each type were treated with KR12 recognizing a codon 12 mutation in concentrations of 1 nM, 10 nM, 30 nM, 100 nM, 300 nM, and 1 μM for 48 hours. Thereafter, a WST-8 reagent was added to each well, using cell counting kit-8, and the obtained mixture was then reacted for 2 hours. After that, the number of cells was counted at a wavelength of 450 nm according to a colorimetric analysis method using a microplate reader. The method of counting the number of cells comprises: 1) obtaining the mean value of the medium alone, 2) subtracting the mean value of the medium from each well, 3) obtaining the mean value of DMSO, 4) dividing the medium-subtracted value by the mean value of DMSO and then multiplying by 100, 5) obtaining the mean value of each treatment group and a standard deviation, and then preparing a graph. […]

For the next series, the system named is TGW cells. Briefly: Cytotoxicity test, Cell Counting Kit-8, 72 hours. The class given is cell-based. The settings on record: TGW cells, 1 to 100 nM, FIG. 33. The protocol: as §1, with “IMR-32” for “MCF7”, “TGW” for “MDA-MB-231”
The subject of another series is IMR-32 cells. As to the kind of experiment: Cytotoxicity test, Cell Counting Kit-8, 72 hours. The class given is cell-based. The conditions noted are these: Homo sapiens. The protocol: as §1, with “Kelly cells, SK-N-SH cells, IMR-32 cells, SK-N-AS cells,” for “MCF7 cells”
as §1, with “IMR-32” for “MCF7”, “TGW” for “MDA-MB-231”

Series [1] in a line: Body weight and health condition of treated nude mice. The conditions noted are these: nude mice with SW480 cells; FIG. 15; seco CBI 8.4 mmol. The class given is in vivo. The protocol:
The below-mentioned 3 types of PBS solutions containing each type of cells were subcutaneously transplanted into the femurs of nude mice (i.e., HT29 into 7 mice, LS180 into 7 mice, and SW480 into 6 mice), and thereafter, at a time point in which a tumor adhered to the living body of each mouse and the tumor volume became approximately 100 mm^3, a drug was prepared with a composition of 3.4 mmol KR12 (1.36 mM KR12 dissolved in 2.5 μL of DMSO and 197.5 μL of PBS), or of a DMSO/PBS control (2.5 μL of DMSO and 197.5 μL of PBS). The prepared drug was subjected to sonication for 10 minutes, and 200 μL of the drug was administered to each mouse via the caudal vein thereof. The body weight and the tumor size were measured once three days, and the size of the tumor was measured by the method of 0.52×L×W×D(1/6×π×L×W×D).
Using, as controls, PIP-indole-seco-CBI (KR13) not recognizing a codon 12 mutation and 8.4 mmol seco CBI (3.36 mM CBI dissolved in 2.5 μL of DMSO and 197.5 μL of PBS), instead of the DMSO/PBS control, an experiment was carried out by the same method as that of the above section 11.

In another series the test system is SK-N-SH cells. As to the kind of experiment: Cytotoxicity test, Cell Counting Kit-8, 72 hours. The class given is cell-based. The settings on record: Homo sapiens, ALK F1174L neuroblastoma. The protocol: as §1, with “Kelly cells, SK-N-SH cells, IMR-32 cells, SK-N-AS cells,” for “MCF7 cells”
In the next series the test system is Kelly cells. As to the kind of experiment: Cytotoxicity test, Cell Counting Kit-8, 72 hours. The settings on record: ALK F1174L neuroblastoma. The class given is cell-based. The protocol:
as §1, with “Kelly cells, SK-N-SH cells, IMR-32 cells, SK-N-AS cells,” for “MCF7 cells”

The next series has as its system SK-N-AS cells. Briefly: Cytotoxicity test, Cell Counting Kit-8, 72 hours. The class given is cell-based. The settings on record: Homo sapiens, wild-type ALK neuroblastoma. The protocol:
as §1, with “Kelly cells, SK-N-SH cells, IMR-32 cells, SK-N-AS cells,” for “MCF7 cells”

Structures are written as SMILES.

Results on seven compounds are retold here after patent publication US11185593B2, “Alkylating agent for alkylating target with driver oncogene mutation” (Chiba Prefecture, priority 2013, dated 2021).

On to `CC(=O)Nc1cc(C(=O)Nc2cc(C(=O)Nc3cn(C)c(C(=O)Nc4cc(C(=O)NCCC(=O)Nc5cn(C)c(C(=O)Nc6cn(C)c(C(=O)NCCCC(=O)Nc7cc(C(=O)Nc8cc(C(=O)NCCC(=O)Nc9cn(C)c(C(=O)Nc%10cc(C(=O)Nc%11ccc%12[nH]c(C(=O)N%13CC(CCl)c%14c%13cc(O)c%13ccccc%14%13)cc%12c%11)n(C)c%10)n9)n(C)c8)n(C)c7)n6)n5)n(C)c4)n3)n(C)c2)n(C)c1` (stereo not shown) [P3A-E5K-1], for which the half-inhibitory concentration (IC50) (as a rule, the concentration needed to halve the response being measured) with MDA-MB-231 cells (wild-type PIK3CA gene, FIG. 27B) was more than 100 nM; in the series with MCF7 cells it was 53.8 nM. As to `CC(=O)Nc1cn(C)c(C(=O)Nc2cn(C)c(C(=O)NCCC(=O)Nc3cn(C)c(C(=O)Nc4cn(C)c(C(=O)Nc5cc(C(=O)Nc6cn(C)c(C(=O)NCCCC(=O)Nc7cc(C(=O)Nc8cn(C)c(C(=O)NCCC(=O)Nc9cc(C(=O)Nc%10cc(C(=O)Nc%11ccc%12[nH]c(C(=O)N%13CC(CCl)c%14c%13cc(O)c%13ccccc%14%13)cc%12c%11)n(C)c%10)n(C)c9)n8)n(C)c7)n6)n(C)c5)n4)n3)n2)n1` (stereo not shown) [WT], in the series with LS180 cells (Homo sapiens, WST-8, FIG. 8, read-out: IC50), the IC50 stood at 193 nM. As for `CC(=O)Nc1cn(C)c(C(=O)Nc2cc(C(=O)NCCC(=O)Nc3cn(C)c(C(=O)Nc4cn(C)c(C(=O)Nc5cc(C(=O)Nc6cn(C)c(C(=O)NCCCC(=O)Nc7cc(C(=O)Nc8cn(C)c(C(=O)NCCC(=O)Nc9cc(C(=O)Nc%10cc(C(=O)Nc%11ccc%12[nH]c(C(=O)NCCC(=O)N(C)C)cc%12c%11)n(C)c%10)n(C)c9)n8)n(C)c7)n6)n(C)c5)n4)n3)n(C)c2)n1` [C12-Dp], the “suppression of the cell growth” value in the series on LS180 cells (1 nM to 1 μM, FIG. 8) is on record as “suppression of the cell growth was not observed”. Compound `CC(=O)Nc1cc(C(=O)Nc2cc(C(=O)Nc3cn(C)c(C(=O)NCCC(=O)Nc4cc(C(=O)Nc5cn(C)c(C(=O)Nc6cn(C)c(C(=O)NCCCC(=O)Nc7cc(C(=O)Nc8cc(C(=O)NCCC(=O)Nc9cn(C)c(C(=O)Nc%10cc(C(=O)Nc%11ccc%12[nH]c(C(=O)N%13CC(CCl)c%14c%13cc(O)c%13ccccc%14%13)cc%12c%11)n(C)c%10)n9)n(C)c8)n(C)c7)n6)n5)n(C)c4)n3)n(C)c2)n(C)c1` (stereo not shown) [P3A-E5K-2] gave an IC50 with MCF7 cells of more than 100 nM. As to `CC(=O)Nc1cc(C(=O)Nc2cn(C)c(C(=O)Nc3cc(C(=O)NCCC(=O)Nc4cn(C)c(C(=O)Nc5cc(C(=O)NCCCC(=O)Nc6cc(C(=O)Nc7cc(C(=O)NCCC(=O)Nc8cc(C(=O)Nc9ccc%10[nH]c(C(=O)N%11CC(CCl)c%12c%11cc(O)c%11ccccc%12%11)cc%10c9)n(C)c8)n(C)c7)n(C)c6)n(C)c5)n4)n(C)c3)n2)n(C)c1` (stereo not shown) [MYCNA2], the IC50 in the series on TGW cells was 11.2 nM; in the series with IMR-32 cells (IMR-32 cells, 1 to 100 nM, FIG. 33), 12.1 nM. In the case of `Oc1cc2c(c3ccccc13)C(CCl)CN2` (stereo not shown) [seco-CBI, 1-chloromethyl-5-hydroxy-1,2-dihydro-3H-benzo[e]indole], the “tendency of body weight reduction” value in [1] is “the tendency of body weight reduction, which was observed”. As to `CC(=O)Nc1cc(C(=O)Nc2cc(C(=O)Nc3cc(C(=O)Nc4cc(C(=O)NCCC(=O)Nc5cc(C(=O)Nc6cc(C(=O)Nc7cc(C(=O)NCCCC(=O)Nc8cn(C)c(C(=O)Nc9cn(C)c(C(=O)NCCC(=O)Nc%10cn(C)c(C(=O)Nc%11cn(C)c(C(=O)Nc%12cc(C(=O)Nc%13ccc%14[nH]c(C(=O)N%15CC(CCl)c%16c%15cc(O)c%15ccccc%16%15)cc%14c%13)n(C)c%12)n%11)n%10)n9)n8)n(C)c7)n(C)c6)n(C)c5)n(C)c4)n(C)c3)n(C)c2)n(C)c1` (stereo not shown) [ALK-FL-1], the IC50 with IMR-32 cells (IMR-32, IMR32, wild-type ALK neuroblastoma) was 0.46 nM; in the series with MDA-MB-231 cells (wild-type ALK gene), 7.5 nM; in the series with SK-N-SH cells, 0.13 nM; in the series on Kelly cells, 0.09 nM; in the series on SK-N-AS cells, 2.6 nM.
